In ChEMBL document CHEMBL4177733, “(-)-9'-O-(α-l-Rhamnopyranosyl)lyoniresinol from Lespedeza cuneata suppresses ovarian cancer cell proliferation through induction of apoptosis” (Bioorg Med Chem Lett, 2018):
pIC50: −log10 of the molar value. Active and inactive are the calls of the source. The calls are words filed in the database; no cut-off is given here.

What was measured:
[1] = tested on: A2780; experiment: Cytotoxicity against human A2780 cells assessed as reduction in cell viability at 5 to 100 uM incubated for 24 hrs by MTT assay; format: functional, cell-based
[2] = tested on: MCF7; experiment: Cytotoxicity against human MCF7 cells assessed as reduction in cell viability at 5 to 100 uM incubated for 24 hrs by MTT assay; format: functional, cell-based
[3] = tested on: A2780; experiment: Induction of apoptosis in human A2780 cells assessed as caspase-9 activation at 50 to 100 uM incubated for 24 hrs by Western blot; format: functional, cell-based
[4] = tested on: LLC-PK1; experiment: Cytotoxicity against LLC-PK1 cells assessed as reduction in cell viability at 5 to 100 uM incubated for 24 hrs by MTT assay; format: cell-based; conditions: Sus scrofa, LLC-PK1, 24 h
[5] = tested on: A2780; experiment: Induction of apoptosis in human A2780 cells assessed as caspase-8 activation at 50 to 100 uM incubated for 24 hrs by Western blot; format: functional, cell-based
[6] = tested on: A2780; experiment: Induction of apoptosis in human A2780 cells assessed as induction of cell shrinkage at 50 to 100 uM incubated for 24 hrs by Hoechst 33342 staining based fluorescence microscopy; format: functional
[7] = tested on: HeLa; experiment: Cytotoxicity against human HeLa cells assessed as reduction in cell viability at 5 to 100 uM incubated for 24 hrs by MTT assay; format: functional, cell-based
[8] = tested on: A2780; experiment: Induction of apoptosis in human A2780 cells assessed as increase in BAX protein level at 50 to 100 uM incubated for 24 hrs by Western blot; format: functional, cell-based
[9] = tested on: A2780; experiment: Induction of apoptosis in human A2780 cells assessed as induction of cell blebbing at 50 to 100 uM incubated for 24 hrs by Hoechst 33342 staining based fluorescence microscopy; format: functional
[10] = tested on: A2780; experiment: Induction of apoptosis in human A2780 cells assessed as BID cleavage at 50 to 100 uM incubated for 24 hrs by Western blot; format: functional, cell-based
[11] = tested on: A2780; experiment: Induction of apoptosis in human A2780 cells assessed as induction of cell condensation at 50 to 100 uM incubated for 24 hrs by Hoechst 33342 staining based fluorescence microscopy; format: functional
[12] = tested on: A2780; experiment: Induction of apoptosis in human A2780 cells assessed as reduction in Bcl-2 protein level at 50 to 100 uM incubated for 24 hrs by Western blot; format: functional, cell-based
[13] = tested on: A2780; experiment: Induction of apoptosis in human A2780 cells assessed as caspase-3 activation at 50 to 100 uM incubated for 24 hrs by Western blot; format: functional, cell-based
[14] = tested on: A2780; experiment: Induction of apoptosis in human A2780 cells assessed as PARP cleavage at 50 to 100 uM incubated for 24 hrs by Western blot; format: functional, cell-based

O=c1c(O)c(-c2ccc(O)cc2)oc2cc(O[C@@H]3O[C@H](CO)[C@@H](O)[C@H](O)[C@H]3O)cc(O)c12
Activity [1]: inactive

COc1cc([C@@H]2c3c(cc(OC)c(O)c3OC)C[C@H](CO)[C@H]2CO[C@@H]2O[C@@H](C)[C@H](O)[C@@H](O)[C@H]2O)cc(OC)c1O
Activity [2]: inactive
Activity [3]: inactive
Activity [1]: Dose-dependent effect
pIC50 ([1]; A2780, 24 h): 4.45
pIC50 [4]: < 4.00
Activity [5]: Active
Activity [6]: Active
Activity [7]: inactive
Activity [8]: Active
Activity [9]: Active
Activity [10]: Active
Activity [11]: Active
Activity [12]: Active
Activity [13]: Active
Activity [14]: Active

O=c1c(O[C@@H]2O[C@H](CO)[C@@H](O)[C@H](O)[C@H]2O)c(-c2ccc(O)cc2)oc2cc(O)cc(O)c12
Activity [1]: inactive

COc1cc([C@H]2c3cc(O)c(OC)cc3C[C@@H](CO)[C@@H]2CO[C@@H]2O[C@@H](C)[C@H](O)[C@@H](O)[C@H]2O)ccc1O
Activity [1]: inactive

COc1cc(C(=O)O)ccc1O
Activity [1]: inactive

COc1cc(C(=O)O)cc(OC)c1O
Activity [1]: Active

COc1cc([C@@H]2c3cc(O)c(OC)cc3C[C@H](CO)[C@H]2CO[C@@H]2O[C@@H](C)[C@H](O)[C@@H](O)[C@H]2O)ccc1O
Activity [1]: inactive

O=c1cc(-c2ccc(O)c(O)c2)oc2c([C@@H]3O[C@H](CO)[C@@H](O)[C@H](O)[C@H]3O)c(O)cc(O)c12
Activity [1]: inactive

COc1cc2c(cc1O)[C@H](c1cc(OC)c(O)c(OC)c1)[C@@H](CO[C@@H]1O[C@@H](C)[C@H](O)[C@@H](O)[C@H]1O)[C@H](CO)C2
Activity [1]: inactive
